According to US8785638B2, “Thieno [2, 3-B] pyridine derivatives as viral replication inhibitors” (Katholieke Universiteit Leuven, priority 2009, dated 2014):

Columns and labels:
[1] = target: LEDGF/p75-HIV-1 integrase interaction (Human immunodeficiency virus type 1 group M subtype B (isolate HXB2) (HIV-1), UniProt P04585); test: AlphaScreen assay of LEDGF-integrase interaction inhibition; type: binding; conditions: His6-tagged integrase 300 nM, flag-LEDGF/p75 100 nM; read-out: Alphascreen IC50
Protocol: Alphascreen Assay to Measure the LEDGF-Integrase Interaction Inhibitory Activity of Compounds of the Invention
The AlphaScreen assay was performed according to the manufacturer's protocol (Perkin Elmer, Benelux). Reactions were performed in 25 μl final volume in 384-well Optiwell™ microtiter plates (Perkin Elmer). The reaction buffer contained 25 mM Tris-HCl (pH 7.4), 150 mM NaCl, 1 mM MgCl2, 0.01% (v/v) Tween-20 and 0.1% (w/v) bovine serum albumin. His6-tagged integrase (300 nM final concentration) was incubated with the compounds for 30 min at 4° C. The compounds were added at varying concentrations spanning a wide range from 0.1 up to 100 μM. Afterwards 100 nM flag-LEDGF/p75 was added and incubation was prolonged for an additional hour at 4° C. Subsequently 5 μl of Ni-chelate-coated acceptor beads and 5 μl anti-flag donor beads were added to a final concentration of 20 μg/ml of both beads. Proteins and beads were incubated for 1 h at 30° C. in order to allow association to occur. Exposure of the reaction to direct light was omitted as much as possible and the emission of light from the acceptor beads was measured in the EnVision plate reader (Perkin Elmer, Benelux) and analyzed using the EnVision manager software. IN/DNA binding was analyzed in a similar setting using His6-tagged integrase (1 μM final concentration) and an oligodeoxynucleotide mimicking the IN ELISA oligonucleotide substrate (30 nM final concentration). Counterscreens with JPO2 or PogZ, respectively, were essentially performed as described previously.
His6-tagged HIV-1 integrase, 3xflag-tagged LEDGF/p75, MBP-JPO2 and MBP-PogZ were purified for AlphaScreen applications as described previously 23,25,56.

[2] = test system: HIV-1 (IIIB), HIV-1 (NL4.3); test: microbe, parasite or virus in culture; type: cell-based; conditions: for EC50: Human immunodeficiency virus 1, IIIB, MT4, MT-4 cells, 50% protection against HIV-induced cytopathogenic effect, MTT; for SI: selectivity index, ratio of CC50 to EC50
Protocol: (§1) A rapid and automated assay procedure was used for the in vitro evaluation of anti-HIV agents. An HTLV-1 transformed T4-cell line MT-4, which was previously shown to be highly susceptible to and permissive for HIV infection, served as the target cell line. Inhibition of the HIV-induced cytopathogenic effect was used as the end point. The viabitlity of both HIV- and mock-infected cells was assessed spectrophotometrically via in situ reduction of 3-(4,5-dimethylthiazol-2-yl)-2,5-diphenyltetrazolium bromide (MTT). The 50% cytotoxic concentration (CC50 in μM or μg/ml) was defined as the concentration of compound that reduced the absorbance of the mock-infected control sample by 50%. The percent protection achieved by the compound in HIV-infected cells was calculated by the following formula:
(§2) [formula] whereby (ODT)HIV is the optical density measured with a given concentration of the test compound in HIV-infected cells; (ODC)HIV is the optical density measured for the control untreated HIV-infected cells; (ODC)MOCK is the optical density measured for the control untreated mock-infected cells; all optical density values were determined at 540 nm. The dose achieving 50% protection according to the above formula was defined as the 50% inhibitory concentration (EC50 in μM or μg/ml). The ratio of CC50 to EC50 was defined as the selectivity index (SI). […] Examples of inhibition of cell proliferation by particular compounds of the invention can be found by looking at the respective CC50 values in the MT-4 cell line. Cells:
(§3) MT-4 cells (Miyoshi et al., 1982) were grown and maintained in RPMI 1640 medium supplemented with 10% heat-inactivated fetal calf serum, 2 mM I-glutamine, 0.1% sodium bicarbonate, and 20 μg of gentamicin per ml. Alternatively, the MT-4 cells may also be grown in RPMI 1640 medium supplemented with 10% FCS and 20 μg/ml of gentamicin (RPMI-complete).
The HIV-1 (IIIB) strain (Popovic et al., 1984) as well as the HIV-1 (NL4.3) strain (Adachi et al., J. Virol. 59, 284-291 (1986)) were used.

[3] = Cytotoxicity in mock-infected MT-4 cells (MTT); type: cell-based; conditions: human, 50% cytotoxic concentration
Protocol: as §1, §2, §3

SMILES | IC50 [1] [µM] | EC50 [2] [µM] | SI [2] | CC50 [3] [µM]
CCCC(C(=O)O)c1c(C)nc2sc3c(c2c1-c1ccc(C)cc1)CCC3 (stereo not drawn) [Cpd 100, 2-[2-Methyl-4-p-tolyl-6,7-dihydro-5H-cyclopenta[4,5]thieno[2,3-b]pyridin-3-yl]pentanoic acid] | 6.61 | 1.69 | 72 | 121
Cc1ccc(-c2c(CC(=O)O)c(C)nc3sc4c(c23)CCC4)cc1 [Cpd 101, [2-Methyl-4-p-tolyl-6,7-dihydro-5H-cyclopenta[4,5]thieno[2,3-b]pyridin-3-yl]acetic acid] | 55.3 | 64.1 | >2 | > 125
CCc1sc2nc(C)c(CC(=O)O)c(-c3ccc(C)cc3)c2c1C [Cpd 105, (2-Ethyl-3,6-dimethyl-4-p-tolylthieno[2,3-b]pyridin-5-yl)acetic acid] | 64.3 | > 62.7 |  | 62.7
Cc1ccc(-c2c(CC(=O)O)c(C)nc3sc(C)cc23)cc1 [Cpd 106, (2,6-Dimethyl-4-p-tolylthieno[2,3-b]pyridin-5-yl)acetic acid] | 53.9 | 96.4 | >1 | > 125
CCCC(C(=O)O)c1c(C)nc2sc3c(c2c1-c1ccccc1)CCC3 (stereo not drawn) [Cpd 107, 2-[2-Methyl-4-phenyl-6,7-dihydro-5H-cyclopenta[4,5]thieno[2,3-b]pyridin-3-yl]pentanoic acid] | 34.7 | 13.2 | 8 | 75.7
CCCC(C(=O)O)c1c(C)nc2sc(C)c(C)c2c1-c1ccc(C)cc1 (stereo not drawn) [Cpd 108, 2-(2,3,6-Trimethyl-4-p-tolylthieno[2,3-b]pyridin-5-yl)pentanoic acid] | 4.48 | 2.19 | 27 | 57.9
CCCC(C(=O)O)c1c(C)nc2sc(C)c(CC)c2c1-c1ccc(C)cc1 (stereo not drawn) [Cpd 109, 2-(3-Ethyl-2,6-dimethyl-4-p-tolylthieno[2,3-b]pyridin-5-yl)pentanoic acid] | 6.81 | 2.22 | 26 | 57.9
CCCC(C(=O)O)c1c(C)nc2sc(C)cc2c1-c1ccc(C)cc1 (stereo not drawn) [Cpd 110, 2-(2,6-Dimethyl-4-p-tolylthieno[2,3-b]pyridin-5-yl)pentanoic acid] | 4.31 | 0.76 | 95 | 72.2
CCCC(C(=O)O)c1c(C)nc2sc(CC)c(C)c2c1-c1ccc(C)cc1 (stereo not drawn) [Cpd 111, 2-(2-Ethyl-3,6-dimethyl-4-p-tolylthieno[2,3-b]pyridin-5-yl)pentanoic acid] |  | 1.28 | 43 | 54.4
CCCC(C(=O)O)c1c(C)nc2sc3c(c2c1-c1ccc(Cl)cc1)CCC3 (stereo not drawn) [Cpd 112, 2-[2-Methyl-4-(4-chlorophenyl)-6,7-dihydro-5H-cyclopenta[4,5]thieno[2,3-b]pyridin-3-yl]pentanoic acid] | 1.11 | 0.803 | 84 | 67.7
CCCC(C(=O)O)c1c(C)nc2sc3c(c2c1-c1ccc(C)cc1)CCCC3 (stereo not drawn) [Cpd 113, 2-[2-Methyl-4-p-tolyl-5,6,7,8-tetrahydro[1]benzothieno[2,3-b]pyridin-3-yl]pentanoic acid] | 0.75 | 0.44 | 183 | 80.6
CCC[C@H](C(=O)O)c1c(C)nc2sc3c(c2c1-c1ccc(C)cc1)CCCC3 [Cpd 114, (2S)-[2-Methyl-4-p-tolyl-5,6,7,8-tetrahydro[1]benzothieno[2,3-b]pyridin-3-yl]pentanoic acid] | < 1 | 0.58 | 217 | 126
CCC[C@@H](C(=O)O)c1c(C)nc2sc3c(c2c1-c1ccc(C)cc1)CCCC3 [Cpd 115, (2R)-[2-Methyl-4-p-tolyl-5,6,7,8-tetrahydro[1]benzothieno[2,3-b]pyridin-3-yl]pentanoic acid] | 17.6 | 5.03 | 26 | 131
CCCC(C(=O)O)c1c(C)nc2sc3c(c2c1-c1ccc(C(F)(F)F)cc1)CCC3 (stereo not drawn) [Cpd 116, 2-[2-Methyl-4-(4-trifluoromethylphenyl)-6,7-dihydro-5H-cyclopenta[4,5]thieno[2,3-b]pyridin-3-yl]pentanoic acid] | 0.62 | 1.21 | 12 | 14.7
CCCC(C(=O)O)c1c(C)nc2sc3c(c2c1-c1ccc(CC)cc1)CCC3 (stereo not drawn) [Cpd 117, 2-[2-Methyl-4-(4-ethylphenyl)-6,7-dihydro-5H-cyclopenta[4,5]thieno[2,3-b]pyridin-3-yl]pentanoic acid] | 0.78 | 0.53 | 107 | 54.3
CCCC(C(=O)O)c1c(C)nc2scc(C)c2c1-c1ccc(C)cc1 (stereo not drawn) [Cpd 118, 2-(3,6-Dimethyl-4-p-tolylthieno[2,3-b]pyridin-5-yl)pentanoic acid] | 23.4 | > 50.2 |  | 50.2
CCCC(C(=O)O)c1c(C)nc2sccc2c1-c1ccc(C)cc1 (stereo not drawn) [Cpd 119, 2-(6-Methyl-4-p-tolylthieno[2,3-b]pyridin-5-yl)pentanoic acid] | 2.66 | 31.6 | 4 | 109
CCCC(C(=O)O)c1c(C)nc2sc3ccccc3c2c1-c1ccc(C)cc1 (stereo not drawn) [Cpd 120, 2-[2-Methyl-4-p-tolylbenzo[4,5]thieno[2,3-b]pyridin-3-yl]pentanoic acid] | 2.72 | 1.51 | 67 | 101
COCCC(C(=O)O)c1c(C)nc2sc3c(c2c1-c1ccc(C)cc1)CCC3 (stereo not drawn) [Cpd 122, 2-[2-methyl-4-(p-tolyl)-6,7-dihydro-5H-cyclopenta[4,5]thieno[2,3-b]pyridin-3-yl]-4-O-methoxy-butanoic acid] | 3.2 | 5.3 | 15 | 79.8
C=C(C(=O)O)c1c(C)nc2sc3c(c2c1-c1ccc(C)cc1)CCC3 [Cpd 124, 2-[2-methyl-4-p-tolyl-6,7-dihydro-5H-cyclopenta[4,5]thieno[2,3-b]pyridin-3-yl]acrylic acid] | 41 | > 117 |  | 117
COCC(C(=O)O)c1c(C)nc2sc3c(c2c1-c1ccc(C)cc1)CCC3 (stereo not drawn) [Cpd 125, 2-[2-Methyl-4-(p-tolyl)-6,7-dihydro-5H-cyclopenta[4,5]thieno[2,3-b]pyridin-3-yl]-3-methoxypropanoic acid] | 77 | 66.5 | >2 | > 125
CCCC(C(=O)O)c1c(-c2ccccc2)nc2sc3c(c2c1-c1ccc(C)cc1)CCC3 (stereo not drawn) [Cpd 126, 2-[2-phenyl-4-p-tolyl-6,7-dihydro-5H-cyclopenta[4,5]thieno[2,3-b]pyridin-3-yl]pentanoic acid] | 56.3 | > 30.1 |  | 30.1
CCCC(C(=O)O)c1c(C)nc2sc3c(c2c1-c1ccc(C)cc1)CC(C)C3 (stereo not drawn) [Cpd 127, 2-[2-methyl-6-methyl-4-p-tolyl-6,7-dihydro-5H-cyclopenta[4,5]thieno[2,3-b]pyridin-3-yl]pentanoic acid] | 2.85 | 0.79 | 105 | 82.9
